From ChEMBL document CHEMBL4130419, “Novel chemotypes targeting tubulin at the colchicine binding site and unbiasing P-glycoprotein” (Eur J Med Chem, 2017)

Legend:
MCF7 = assay: Antiproliferative activity against human MCF7 cells after 72 hrs by MTT assay; format: functional, cell-based; details: MCF7, 72 h
HepG2 = assay: Antiproliferative activity against human HepG2 cells after 72 hrs by MTT assay; format: functional, cell-based; details: HepG2, 72 h
HeLa = assay: Antiproliferative activity against human HeLa cells after 72 hrs by MTT assay; format: functional, cell-based
SH-SY5Y = assay: Antiproliferative activity against human SH-SY5Y cells after 72 hrs by MTT assay; format: functional, cell-based
Sus scrofa = species on record: Sus scrofa; assay: Inhibition of tubulin polymerization in porcine brain assessed as disruption of microtubule organization after 1 hr by fluorescence polarization assay
[1] = Apparent permeability from apical to basolateral side in MDCK2-MDR1 cells at 75 uM after 2 hrs UV-visible spectroscopy; format: ADME, cell-based, Canis lupus familiaris; details: dog, MDCK-MDR1
[2] = Apparent permeability from basolateral to apical side in MDCK2-MDR1 cells at 75 uM after 2 hrs UV-visible spectroscopy; format: ADME, cell-based, Canis lupus familiaris; details: dog, MDCK-MDR1
[3] = Efflux ratio of apparent permeability from basolateral to apical over apical to basolateral side in MDCK2-MDR1 cells at 75 uM after 2 hrs by UV-visible spectroscopy; format: ADME, cell-based, Canis lupus familiaris; details: dog, MDCK-MDR1

Structure (SMILES) | IC50 (MCF7) | IC50 (HepG2) | IC50 (HeLa) | IC50 (SH-SY5Y) | inhibition (Sus scrofa) | Papp A→B at 2 h, 75 µM [1] | Papp B→A at 2 h, 75 µM [2] | efflux ratio at 2 h, 75 µM [3]
Cc1cccc(-c2nnc(SCC(=O)c3ccc(O)cc3O)n2-c2ccccc2)c1 | 67.2 µM | 33.1 µM | 16 µM | 12.7 µM | Dose-dependent effect | 22 ×10⁻⁶ cm/s | 13 ×10⁻⁶ cm/s | 0.59
COc1ccc(-c2cc(C(F)F)n3ncc(C(=O)Nc4cc(Cl)ccc4O)c3n2)cc1 | 2.2 µM | > 100 µM | 74 µM | 40 µM | Dose-dependent effect | 18 ×10⁻⁶ cm/s | 21 ×10⁻⁶ cm/s | 1.16
COc1ccc(NS(=O)(=O)c2ccc3c(c2)N(C(C)=O)CC(C)O3)cc1Cl (configuration not stated) | 23 µM | 77.6 µM | 45.7 µM | > 100 µM | Dose-dependent effect | – | – | –
COc1ccc(-c2nc3ccccc3c3nnc(SCc4ncc(C)c(OC)c4C)n23)cc1 | 1.4 µM | > 100 µM | 19 µM | 66 µM | Dose-dependent effect | – | – | –
CCOC(=O)c1c(NC(=O)C2CC(=O)Nc3ccccc32)sc(C)c1C (configuration not stated) | 9 µM | > 100 µM | > 100 µM | 67.5 µM | Dose-dependent effect | – | – | –
Cc1ccc(-n2c(SCC(=O)N3CC(=O)Nc4ccccc43)nnc2-c2cccc(C)c2)cc1 | 68 µM | > 100 µM | 83 µM | 72.4 µM | Dose-dependent effect | – | – | –
Cn1cc(SCC(=O)N2N=C(c3cccs3)CC2c2ccc(F)cc2)c2ccccc21 (configuration not stated) | 37.1 µM | > 100 µM | 44 µM | 11.7 µM | Dose-dependent effect | 39 ×10⁻⁶ cm/s | 47 ×10⁻⁶ cm/s | 1.2
O=C(CSc1nnc(-c2c[nH]c3ccccc23)n1CC1CCCO1)c1ccc(Cl)s1 (configuration not stated) | 66 µM | 79.4 µM | 45.7 µM | 34.7 µM | Dose-dependent effect | – | – | –
C=CCOc1ccccc1CN(C(=O)CN1CCNC(=O)C1)c1ccc2c(c1)OCO2 | 32 µM | > 100 µM | 66 µM | > 100 µM | Dose-dependent effect | – | – | –
COc1cc2c(=O)c(C(=O)c3ccc(C)c(C)c3)cn(Cc3ccc(F)cc3)c2cc1OC | 5.7 µM | 72.4 µM | 36.3 µM | 25.1 µM | Dose-dependent effect | – | – | –
COc1ccc(-n2c(SCC(=O)c3ccc(OC(F)F)cc3)nc3ccccc32)cc1 | 9 µM | 63.9 µM | 37.1 µM | 52.5 µM | Dose-dependent effect | – | – | –
Cc1cc(C)c(O)c(-c2n[nH]c3c2C(c2ccccc2)N(CCCO)C3=O)c1 (configuration not stated) | 54 µM | 48.9 µM | 50.1 µM | 51.3 µM | Dose-dependent effect | – | – | –
COc1ccc(C)cc1NC(=O)c1cnn2c(C(F)F)cc(-c3ccc(C)cc3)nc12 | 7 µM | > 100 µM | 15.1 µM | 67.6 µM | Dose-dependent effect | – | – | –
CCCSc1nnc(N2C(=O)C(O)=C(C(=O)c3ccco3)C2c2ccccc2F)s1 (configuration not stated) | 25.2 µM | > 100 µM | 55 µM | 10.3 µM | Dose-dependent effect | – | – | –
COc1ccc(C2CCCN2CC(=O)Nc2ccccc2-c2ccccc2)cc1 (configuration not stated) | 7 µM | 35.5 µM | 20.8 µM | 8.7 µM | Dose-dependent effect | – | – | –
CC(=O)Nc1ccc(C2=CC(c3ccc(Cl)cc3Cl)n3nc(CCCO)nc3N2)cc1 (configuration not stated) | 66 µM | 74.1 µM | 63.1 µM | 61.7 µM | Dose-dependent effect | – | – | –

Structure (SMILES) | IC50 (MCF7) | IC50 (HepG2) | IC50 (HeLa) | IC50 (SH-SY5Y) | inhibition (Sus scrofa) | Papp A→B at 2 h, 75 µM [1] | Papp B→A at 2 h, 75 µM [2] | efflux ratio at 2 h, 75 µM [3]
CCC(c1nnc(SCC(=O)c2[nH]c(C)c(C(C)=O)c2C)n1Cc1ccccc1)N(C)C (configuration not stated) | 10 µM | 96.9 µM | 74.1 µM | 37 µM | Dose-dependent effect | – | – | –
CCOC(=O)c1c(NC(=O)C2=C(C)N=C(S)NC2c2ccc(CC)cc2)sc(C)c1C (configuration not stated) | 26 µM | > 100 µM | 36.3 µM | > 100 µM | Dose-dependent effect | – | – | –
Cc1cccc(-n2ccnc2SCC(=O)c2ccc3c(c2)CCC(=O)N3)c1 | 66 µM | 91.2 µM | 81.7 µM | 67.6 µM | Dose-dependent effect | – | – | –
NC(=O)C1CCN(c2nc(CSc3ccccc3)nc3sc4c(c23)CCCC4)CC1 | 11 µM | 52.5 µM | 45.7 µM | 11.5 µM | Dose-dependent effect | 45 ×10⁻⁶ cm/s | 82 ×10⁻⁶ cm/s | 1.82
Cc1n[nH]c(O)c1C(c1cccc(OCc2ccc(F)cc2)c1)c1c(O)n[nH]c1C | 8 µM | > 100 µM | 23.9 µM | 43.7 µM | Dose-dependent effect | – | – | –
CCOc1ccc(-n2c(SCC(=O)N3CCOCC3)nnc2-c2cccc(C)c2)cc1 | 93 µM | > 100 µM | 61.6 µM | > 100 µM | Dose-dependent effect | – | – | –
CCOC(=O)c1c(C)[nH]c(C)c1C(=O)CSC1=Nc2ccccc2C2CC=NN12 (configuration not stated) | 32 µM | 14.1 µM | 63.2 µM | 3.7 µM | Dose-dependent effect | 76 ×10⁻⁶ cm/s | 47 ×10⁻⁶ cm/s | 0.62
Cc1ccc(NC(=O)Cn2c(C(F)(F)F)nc3ccccc32)c(-c2nc(C3CC3)n[nH]2)c1 | 13 µM | 38.9 µM | 1.6 µM | 0.9 µM | Dose-dependent effect | – | – | –
CSc1ccccc1NC(=O)c1cnn2c(C(F)F)cc(-c3ccc(C)cc3)nc12 | 6 µM | 100 µM | 95.5 µM | 57.5 µM | Dose-dependent effect | – | – | –
CCOC(=O)C1CCCN(C(=O)c2cc(-c3ccc(Cl)cc3)nc3ccccc23)C1 (configuration not stated) | 17.4 µM | 100 µM | 54.9 µM | 38 µM | Dose-dependent effect | – | – | –
COc1cc2c(c(OC)c1OC)-c1ccc(OC)c(=O)cc1[C@@H](NC(C)=O)CC2 [COLCHICINE] | – | 0.042 µM | – | – | – | – | – | –
O=C(c1c[nH]c2ccccc12)C(NCc1ccc2c(c1)OCO2)c1ccccc1 (configuration not stated) | 26 µM | 32.4 µM | 22.4 µM | 17.4 µM | Dose-dependent effect | 90 ×10⁻⁶ cm/s | 92 ×10⁻⁶ cm/s | 1.02
CCCCN1C(=O)c2[nH]nc(-c3ccccc3O)c2C1c1ccc(OCC)cc1 (configuration not stated) | 5.2 µM | 18.3 µM | 21 µM | 22.5 µM | Dose-dependent effect | 63 ×10⁻⁶ cm/s | 55 ×10⁻⁶ cm/s | 0.87
O=C(Cn1cc(CNC2(c3ccccc3F)CCCC2)c2ccccc21)NC1CC1 | 29 µM | > 100 µM | 52.5 µM | > 100 µM | Dose-dependent effect | – | – | –
CCc1cccc(NC(=O)c2cnn3c(C(F)F)cc(-c4ccc(C)cc4)nc23)c1 | 9.2 µM | > 100 µM | 95.5 µM | 100 µM | Dose-dependent effect | – | – | –
Cc1cccc(-n2nc(C)c3c2NC2=C(C(=O)CC(C)(C)C2)C3c2ccc(O)cc2)c1 (configuration not stated) | 25 µM | > 100 µM | 10.7 µM | 70.8 µM | Dose-dependent effect | – | – | –
